Measured values taken from patent US8710038B2, “Pyrazole kinase modulators and methods of use” (Exelixis, Inc., priority 2004, dated 2014).

Tests used:
flt-3 = molecular target: T1, flt-3 (Homo sapiens, UniProt P36888); assay: flt-3 Luciferase-Coupled Chemiluminescent Kinase assay (LCCA); assay type: biochemical
T1 construct: baculovirus expressed human Flt-3 kinase domain R571-S993
T1 sequence (P36888 571-993): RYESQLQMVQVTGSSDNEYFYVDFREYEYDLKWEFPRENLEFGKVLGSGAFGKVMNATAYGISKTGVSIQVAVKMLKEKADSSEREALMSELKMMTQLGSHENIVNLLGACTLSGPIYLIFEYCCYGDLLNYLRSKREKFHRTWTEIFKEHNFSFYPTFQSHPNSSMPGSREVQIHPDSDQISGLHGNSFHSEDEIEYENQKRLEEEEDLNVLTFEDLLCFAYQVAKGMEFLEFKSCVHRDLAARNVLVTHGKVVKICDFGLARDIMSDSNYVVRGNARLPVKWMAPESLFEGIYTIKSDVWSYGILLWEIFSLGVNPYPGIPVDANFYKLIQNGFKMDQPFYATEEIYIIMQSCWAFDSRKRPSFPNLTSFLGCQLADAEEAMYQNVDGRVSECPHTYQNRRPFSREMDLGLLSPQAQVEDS
Procedure: In the LCCA assays, kinase activity is measured as the percent ATP consumed following the kinase reaction using luciferase-luciferin-coupled chemiluminescence. Greiner 384-well white, clear bottom, medium-binding plates are used for LCCA. Briefly, the kinase reaction is initiated by mixing compounds, ATP and kinase in a 20 uL volume. The mixture is incubated at ambient temperature for 2-4 hrs. At the end of the kinase reaction, a 20 uL luciferase-luciferin mix is added and the chemiluminescent signal is read using a Wallac Victor^2 reader. The luciferase-luciferin mix consists of 50 mM HEPES, pH 7.8, 8.5 ug/mL oxalic acid (pH 7.8), 5 (or 50) mM DTT, 0.4% Triton X-100, 0.25 mg/mL coenzyme A, 63 uM AMP, 28 ug/mL luciferin and 40,000 units of light/mL luciferase. For the LCCA assays, total ATP consumption has been standardized to 25-45% and the IC50 values correlates well with those determined by radiometric assays.
Flt-3 biochemical activity was assessed using a Luciferase-Coupled Chemiluminescent Kinase assay (LCCA) format. Kinase activity was measured as the percent ATP remaining following the kinase reaction. Remaining ATP was detected by luciferase-luciferin-coupled chemiluminescence. Specifically, the reaction was initiated by mixing test compounds, 5 μM ATP, 3 μM poly-EY and 5 nM Flt-3 (baculovirus expressed human Flt-3 kinase domain R571-S993) in a 20 uL assay buffer (20 mM Tris-HCL pH7.5, 10 mM MgCl2, 0.01% Triton X-100, 1 mM DTT, 2 mM MnCl2). The mixture is incubated at ambient temperature for 3 hours after which 20 uL luciferase-luciferin mix is added and the chemiluminescent signal read using a Wallac Victor^2 reader. The luciferase-luciferin mix consists of 50 mM HEPES, pH 7.8, 8.5 ug/mL oxalic acid (pH 7.8), 5 (or 50) mM DTT, 0.4% Triton X-100, 0.25 mg/mL coenzyme A, 63 uM AMP, 28 ug/mL luciferin and 40,000 units of light/mL luciferase.

c-Kit = c-Kit (Homo sapiens, UniProt P10721); assay: c-Kit biochemical assay (AlphaScreen)
From the text: AlphaScreen technology is a proximity assay which utilizes the increase in fluorescent signal occurring when donor and acceptor beads are close in proximity. Biotinylated poly(Glu,Tyr) 4:1 is used as the kinase substrate, in conjunction with streptavidin-coated donor beads and anti-phosphortyrosine antibody PY100-coated acceptor beads. Upon phosphorylation, the peptide substrate can bind to both donor and acceptor beads giving rise to an increase in fluorescence. Compounds, ATP, biotinylated poly(Glu, Tyr) and kinases are mixed in a volume of 20 uL for 1 hr at ambient temperature using Greiner 384-well white clear bottom medium binding plates. Following incubation a 10 uL solution containing […] AlphaScreen beads, 75 mM Hepes, pH 7.4, 300 mM NaCl, 120 mM EDTA, 0.3% BSA and 0.03% Tween-20 is added to each well. After 2-16 hr incubation of the beads, plates are read in a Perkin Elmer AlphaQuest reader. The IC50 values correlates well with those of radiometric assays.
c-Kit biochemical activity was assessed using AlphaScreen™ (Perkin Elmer) technology, described above. Test compounds, ATP, biotinylated poly(Glu, Tyr) and c-Kit kinase were combined in a volume of 20 μL in a 384-well white, medium binding microtiter plate (Greiner). Reaction mixtures were incubated for 1 hr at ambient temperature. Reactions were quenched by addition of 10 uL of […] AlphaScreen bead suspension containing 75 mM Hepes, pH 7.4, 300 mM NaCl, 120 mM EDTA, 0.3% BSA and 0.03% Tween-20. After 16 hr incubation at ambient temperature plates were read using an AlphaQuest reader (Perkin Elmer).

c-Kit, sequence (P10721 26-976): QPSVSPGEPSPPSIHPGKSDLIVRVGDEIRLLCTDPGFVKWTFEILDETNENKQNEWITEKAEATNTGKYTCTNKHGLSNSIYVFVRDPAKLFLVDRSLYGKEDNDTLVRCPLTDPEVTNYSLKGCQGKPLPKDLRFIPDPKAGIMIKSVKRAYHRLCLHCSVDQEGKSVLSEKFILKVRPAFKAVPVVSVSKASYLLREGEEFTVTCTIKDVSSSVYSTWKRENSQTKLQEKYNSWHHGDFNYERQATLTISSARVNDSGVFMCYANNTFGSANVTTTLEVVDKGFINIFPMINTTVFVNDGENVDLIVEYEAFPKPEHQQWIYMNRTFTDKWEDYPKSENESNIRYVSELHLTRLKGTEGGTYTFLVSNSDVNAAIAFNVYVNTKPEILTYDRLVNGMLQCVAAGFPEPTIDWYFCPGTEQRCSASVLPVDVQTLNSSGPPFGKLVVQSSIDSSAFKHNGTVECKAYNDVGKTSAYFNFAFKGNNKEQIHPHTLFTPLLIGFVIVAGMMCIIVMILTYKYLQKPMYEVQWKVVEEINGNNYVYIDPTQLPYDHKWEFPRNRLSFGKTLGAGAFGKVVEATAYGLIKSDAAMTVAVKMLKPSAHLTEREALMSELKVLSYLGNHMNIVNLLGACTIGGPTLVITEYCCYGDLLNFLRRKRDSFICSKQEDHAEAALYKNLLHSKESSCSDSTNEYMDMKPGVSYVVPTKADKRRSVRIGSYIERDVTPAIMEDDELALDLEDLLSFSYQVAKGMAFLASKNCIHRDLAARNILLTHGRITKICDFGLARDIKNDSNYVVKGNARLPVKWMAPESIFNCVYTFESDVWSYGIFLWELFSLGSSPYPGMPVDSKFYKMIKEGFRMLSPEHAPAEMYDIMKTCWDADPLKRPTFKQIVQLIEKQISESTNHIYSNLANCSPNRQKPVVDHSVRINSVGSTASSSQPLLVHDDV

IC50 (flt-3) [nM]	IC50 (c-Kit) [nM]	Compound
< 50	< 50	CN1CCN(c2ccc3nc(-c4cc(-c5ccc(NC(=O)Nc6ccc(C(F)(F)F)cc6)cc5)[nH]n4)[nH]c3c2)CC1 [Entry 13, N-(4-{3-[6-(4-methylpiperazin-1-yl)-1H-benzimidazol-2-yl]-1H-pyrazol-5-yl}phenyl)-N′-[4-(trifluoromethyl)phenyl]urea]
< 50	< 50	Cc1ccc(NC(=O)Nc2ccc(-c3cc(-c4ccc(N5CCN(C)CC5)cc4)[nH]n3)cc2)cc1C [Entry 17, N-(3,4-dimethylphenyl)-N′-(4-{5-[4-(4-methylpiperazin-1-yl)phenyl]-1H-pyrazol-3-yl}phenyl)urea]
< 50	< 50	CN1CCN(c2ccc3nc(-c4cc(-c5ccc(NC(=O)Nc6cccc(C#N)c6)cc5)[nH]n4)[nH]c3c2)CC1 [Entry 24, N-(3-cyanophenyl)-N′-(4-{3-[6-(4-methylpiperazin-1-yl)-1H-benzimidazol-2-yl]-1H-pyrazol-5-yl}phenyl)urea]
< 50	< 50	COc1ccc(NC(=O)Nc2ccc(-c3cc(-c4nc5cc(N6CCN(C)CC6)ccc5[nH]4)n[nH]3)cc2)cc1OC [Entry 26, N-[3,4-bis(methyloxy)phenyl]-N′-(4-{3-[5-(4-methylpiperazin-1-yl)-1H-benzimidazol-2-yl]-1H-pyrazol-5-yl}phenyl)urea]
< 50	< 50	COc1ccc(Cl)cc1NC(=O)Nc1ccc(-c2cc(-c3ccc(N4CCN(C)CC4)cc3)[nH]n2)cc1 [Entry 27, N-[5-chloro-2-(methyloxy)phenyl]-N′-(4-{5-[4-(4-methylpiperazin-1-yl)phenyl]-1H-pyrazol-3-yl}phenyl)urea]
< 50	< 50	CN1CCN(c2ccc(-c3cc(-c4ccc(NC(=O)Nc5ccc(Oc6ccccc6)cc5)cc4)n[nH]3)cc2)CC1 [Entry 28, N-(4-{5-[4-(4-methylpiperazin-1-yl)phenyl]-1H-pyrazol-3-yl}phenyl)-N′-[4-(phenyloxy)phenyl]urea]
< 50	< 50	Cc1ccc(F)cc1NC(=O)Nc1ccc(-c2cc(-c3nc4ccc(N5CCN(C)CC5)cc4[nH]3)n[nH]2)cc1 [Entry 38, N-(5-fluoro-2-methylphenyl)-N′-(4-{3-[6-(4-methylpiperazin-1-yl)-1H-benzimidazol-2-yl]-1H-pyrazol-5-yl}phenyl)urea]
< 50	50 to 500	CN1CCN(c2cccc(-c3cc(-c4ccc(NC(=O)Nc5ccc(Cl)c(C(F)(F)F)c5)cc4)[nH]n3)c2)CC1 [Entry 40, N-[4-chloro-3-(trifluoromethyl)phenyl]-N′-(4-{3-[3-(4-methylpiperazin-1-yl)phenyl]-1H-pyrazol-5-yl}phenyl)urea]
< 50	50 to 500	COc1ccc(NC(=O)Nc2ccc(-c3cc(-c4ccc(N5CCN(C)CC5)cc4)[nH]n3)cc2)c(OC)c1 [Entry 43, N-[2,4-bis(methyloxy)phenyl]-N′-(4-{5-[4-(4-methylpiperazin-1-yl)phenyl]-1H-pyrazol-3-yl}phenyl)urea]
500 to 5000	50 to 500	CC(C)(C)OC(=O)Nc1ccc(-c2cc(-c3nc4ccccc4[nH]3)n[nH]2)cc1 [Entry 52, 1,1-dimethylethyl{4-[3-(1H-benzimidazol-2-yl)-1H-pyrazol-5-yl]phenyl}carbamate]
50 to 500	500 to 5000	Oc1ccc(/C=C/c2cc(-c3ccccn3)[nH]n2)cc1 [Entry 62, 4-[(E)-2-(5-pyridin-2-yl-1H-pyrazol-3-yl)ethenyl]phenol]
50 to 500	500 to 5000	Oc1ccc(/C=C/c2cc(-c3cc4cc(Cl)ccc4o3)n[nH]2)cc1 [Entry 63, 4-{(E)-2-[3-(5-chloro-1-benzofuran-2-yl)-1H-pyrazol-5-yl]ethenyl}phenol]
500 to 5000	500 to 5000	CCN1CCN(c2ccc3[nH]c(-c4cc(-c5ccc(NC(=O)NC(C)(C)C)cc5)[nH]n4)nc3c2)CC1 [Entry 64, N-(1,1-dimethylethyl)-N′-(4-{3-[5-(4-ethylpiperazin-1-yl)-1H-benzimidazol-2-yl]-1H-pyrazol-5-yl}phenyl)urea]
50 to 500	500 to 5000	Oc1ccc(/C=C/c2cc(-c3ccncc3)n[nH]2)cc1 [Entry 65, 4-[(E)-2-(3-pyridin-4-yl-1H-pyrazol-5-yl)ethenyl]phenol]
500 to 5000	500 to 5000	Oc1ccc(/C=C/c2cc(-c3cccc(Cl)c3)n[nH]2)cc1 [Entry 66, 4-{(E)-2-[3-(3-chlorophenyl)-1H-pyrazol-5-yl]ethenyl}phenol]
500 to 5000	500 to 5000	COc1ccccc1-c1cc(/C=C/c2ccc(O)cc2)n[nH]1 [Entry 67, 4-((E)-2-{5-[2-(methyloxy)phenyl]-1H-pyrazol-3-yl}ethenyl)phenol]
50 to 500	500 to 5000	Oc1ccc(/C=C/c2cc(-c3ccccc3Cl)n[nH]2)cc1 [Entry 68, 4-{(E)-2-[3-(2-chlorophenyl)-1H-pyrazol-5-yl]ethenyl}phenol]
50 to 500	500 to 5000	Oc1ccc(/C=C/c2cc(-c3cccnc3)n[nH]2)cc1 [Entry 69, 4-[(E)-2-(3-pyridin-3-yl-1H-pyrazol-5-yl)ethenyl]phenol]
500 to 5000	500 to 5000	COc1cccc(-c2cc(/C=C/c3ccc(O)cc3)n[nH]2)c1 [Entry 70, 4-((E)-2-{5-[3-(methyloxy)phenyl]-1H-pyrazol-3-yl}ethenyl)phenol]
500 to 5000	500 to 5000	CC(C)(C)OC(=O)Nc1ccc(-c2cc(/C=C/c3ccccc3)n[nH]2)cc1 [Entry 71, 1,1-dimethylethyl(4-{3-[(E)-2-phenylethenyl]-1H-pyrazol-5-yl}phenyl)carbamate]
500 to 5000	500 to 5000	Oc1ccc(/C=C/c2cc(-c3ccc(Cl)c(Cl)c3)n[nH]2)cc1 [Entry 72, 4-{(E)-2-[3-(3,4-dichlorophenyl)-1H-pyrazol-5-yl]ethenyl}phenol]
< 50	500 to 5000	Oc1ccc2cc(-c3cc(/C=C/c4ccccc4)[nH]n3)oc2c1 [Entry 73, 2-{5-[(E)-2-phenylethenyl]-1H-pyrazol-3-yl}-1-benzofuran-6-ol]
50 to 500	500 to 5000	Oc1ccc(/C=C/c2cc(-c3cccc(F)c3)[nH]n2)cc1 [Entry 74, 4-{(E)-2-[5-(3-fluorophenyl)-1H-pyrazol-3-yl]ethenyl}phenol]
500 to 5000	500 to 5000	c1ccc(-c2cc(-c3nc4ccccc4[nH]3)n[nH]2)cc1 [Entry 75, 2-(5-phenyl-1H-pyrazol-3-yl)-1H-benzimidazole]
500 to 5000	500 to 5000	Nc1ccc(-c2cc(-c3nc4ccccc4[nH]3)n[nH]2)cc1 [Entry 77, 4-[3-(1H-benzimidazol-2-yl)-1H-pyrazol-5-yl]aniline]
500 to 5000	500 to 5000	Oc1ccc(/C=C/c2cc(-c3cccc(-c4ccccc4)c3)[nH]n2)cc1 [Entry 78, 4-[(E)-2-(5-biphenyl-3-yl-1H-pyrazol-3-yl)ethenyl]phenol]
